What all share (type): cell-based
Test [1] concerns the target T1, EGFR exon 20 FQEA Ins A763_V764 (Ba/F3 cells) (Homo sapiens, UniProt P00533, INS763FQEA).
T1 construct: expressed in transfected cells; host or cells: Ba/F3 (murine pro-B cells), retroviral transduction, puromycin selection, IL3-independent pool
Briefly: Inhibitor activity on EGFR-dependent cell growth (CellTiter-Glo, 72 h), Ba/F3 EGFR exon 20 FQEA Ins. The settings on record: read-out: BaF3 FQEA IC50. The procedure, abridged:
(§1)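 IC50s derive from a sigmoidal dose–response fit of CellTiter-Glo signal. The signal was normalised between […]-treated cells and cell-free medium. Ba/F3 mutant-EGFR cells, seeded at 400–800/well depending on the line, had 72 h of exposure to a 10-point, 3-fold compound series.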

Test [2] deals with T2, EGFR exon 20 SVD Ins D770_N771 (Ba/F3 cells) (Homo sapiens, UniProt P00533, INS770SVD).
T2 construct: expressed in transfected cells; host or cells: Ba/F3 (murine pro-B cells), retroviral transduction, puromycin selection, IL3-independent pool
T2 sequence (P00533 with tags, fused parts or gaps INS770SVD): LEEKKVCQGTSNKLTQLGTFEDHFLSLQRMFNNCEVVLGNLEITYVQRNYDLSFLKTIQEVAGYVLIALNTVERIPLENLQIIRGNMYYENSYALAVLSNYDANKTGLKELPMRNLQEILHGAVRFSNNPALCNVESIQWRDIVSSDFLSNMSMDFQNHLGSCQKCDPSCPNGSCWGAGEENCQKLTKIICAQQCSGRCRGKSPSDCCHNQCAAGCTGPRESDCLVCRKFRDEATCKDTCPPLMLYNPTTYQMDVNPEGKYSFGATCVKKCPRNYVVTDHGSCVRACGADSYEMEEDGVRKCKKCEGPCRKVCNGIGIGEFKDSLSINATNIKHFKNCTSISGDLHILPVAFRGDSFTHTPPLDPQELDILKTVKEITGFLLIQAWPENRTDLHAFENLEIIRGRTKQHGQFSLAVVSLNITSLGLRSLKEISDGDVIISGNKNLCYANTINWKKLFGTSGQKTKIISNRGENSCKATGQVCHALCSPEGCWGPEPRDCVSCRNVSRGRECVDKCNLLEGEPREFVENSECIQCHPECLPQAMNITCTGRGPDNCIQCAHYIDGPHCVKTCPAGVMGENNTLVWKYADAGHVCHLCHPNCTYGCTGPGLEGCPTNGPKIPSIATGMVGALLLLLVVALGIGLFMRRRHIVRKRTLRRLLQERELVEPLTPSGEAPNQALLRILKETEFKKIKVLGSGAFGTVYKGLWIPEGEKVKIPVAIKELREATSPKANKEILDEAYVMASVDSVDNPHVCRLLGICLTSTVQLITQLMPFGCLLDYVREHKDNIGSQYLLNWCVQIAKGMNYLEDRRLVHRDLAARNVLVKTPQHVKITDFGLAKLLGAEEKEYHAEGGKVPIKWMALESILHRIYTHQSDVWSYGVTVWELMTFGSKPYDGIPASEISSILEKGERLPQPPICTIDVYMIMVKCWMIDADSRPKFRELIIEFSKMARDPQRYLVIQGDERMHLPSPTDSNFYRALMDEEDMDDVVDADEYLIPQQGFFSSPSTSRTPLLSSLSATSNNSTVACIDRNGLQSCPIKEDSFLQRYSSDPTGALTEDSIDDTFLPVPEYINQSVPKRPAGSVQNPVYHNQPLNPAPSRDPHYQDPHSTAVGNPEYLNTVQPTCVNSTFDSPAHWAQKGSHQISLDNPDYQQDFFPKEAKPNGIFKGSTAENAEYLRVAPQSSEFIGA
The test is described as follows: Inhibitor activity on EGFR-dependent cell growth (CellTiter-Glo, 72 h), Ba/F3 EGFR exon 20 SVD Ins. The conditions noted are these: read-out: BaF3 SVD IC50. The procedure, abridged:
as §1

Test [3] concerns the target T3, EGFR exon 20 ASV Ins V769_D770 (Ba/F3 cells) (Homo sapiens, UniProt P00533, INS769ASV).
T3 construct: expressed in transfected cells; host or cells: Ba/F3 (murine pro-B cells), retroviral transduction, puromycin selection, IL3-independent pool
Briefly: Inhibitor activity on EGFR phosphorylation (pEGFR AlphaLISA, 2 h), Ba/F3 EGFR exon 20 ASV Ins. The source says: Example B. Inhibitor Activity on EGFR phosphorylation (pEGFR)
EGFR mutant Ba/F3 cells were generated by transduction with retrovirus containing vectors expressing EGFR L858R, EGFR exon 19del, EGFR L858R/C797S, EGFR exon 20 NPG Ins D770_N771, EGFR exon 20 ASV Ins V769_D770, or EGFR exon 20 SVD Ins D770_N771 genes along with a puromycin selection marker. Transduced cells are selected with puromycin for 7 days and are then be transferred into culture media without Interleukin 3 (IL3). Surviving cells are confirmed to express EGFR by Western blot and maintained as a pool. CUTO14 cells were obtained from Dr. Robert C. Doebele at the University of Colorado. The IC50 date are included in Table 6 and Table 7.
1.1 Cells are harvested from flask into cell culture medium and the cell number counted.
1.2 Cells are diluted with culture medium to the desired density and 40 μL of cell suspension is added into each well of 384-well cell culture plate and the seeding density is 50K cells/well (Ba/F3) or 12.5K cells/well (CUTO14).
2 Compound Preparation and Treatment
2.1 Test compounds are dissolved to 10 mM in a DMSO stock solution. 45 μL of stock solution is transferred to a 384 polypropylene plate (pp-plate). Perform 3-fold, 10-point dilution via transferring 15 μL compound into 30 μL DMSO using a TECAN (EVO200) liquid handler.
2.2 Spin plates at room temperature at 1,000 RPM for 1 minute.
2.3 Transfer 5 nL of diluted compound from compound source plate into the cell plate.
2.4 After compound treatment for 2 hours, perform pEGFR detection by AlphaLISA for compound treatment plates as described in “Detection” section.
3 Detection by pEGFR AlphaLISA (Perkin-Elmer)
3.1 Plates are removed from incubators and equilibrated at room temperature for 10 minutes, and media was removed
3.2 10 μL of lysis buffer is added and plates shaken at 600 rpm for 1 hr.
3.3 Prepare acceptor mix just before use and dispense 5 μL of acceptor mix to all the wells. Shake 350 rpm for Ihr in the dark
3.4 Prepare donor mix under low light conditions prior to use. Dispense 5 μL of donor mix to all the wells. Mix well on the shaker, seal and wrap in aluminum foil and incubate 1.5 hrs at room temperature in the dark
3.5 Transfer 18.5 μL mixture to OptiPlate 384, and read using an Envision. The IC50 date were included in Table 6 and Table 7.

For test [4], the target named is T3, EGFR exon 20 ASV Ins V769_D770 (Ba/F3 cells). Briefly: Inhibitor activity on EGFR-dependent cell growth (CellTiter-Glo, 72 h), Ba/F3 EGFR exon 20 ASV Ins. The settings on record: read-out: BaF3 ASV IC50. The procedure, abridged: as §1
For test [5], the target named is T4, EGFR exon 20 NPG Ins D770_N771 (Ba/F3 cells) (Homo sapiens, UniProt P00533, INS770NPG).
T4 construct: expressed in transfected cells; host or cells: Ba/F3 (murine pro-B cells), retroviral transduction, puromycin selection, IL3-independent pool
T4 sequence (P00533 with tags, fused parts or gaps INS770NPG): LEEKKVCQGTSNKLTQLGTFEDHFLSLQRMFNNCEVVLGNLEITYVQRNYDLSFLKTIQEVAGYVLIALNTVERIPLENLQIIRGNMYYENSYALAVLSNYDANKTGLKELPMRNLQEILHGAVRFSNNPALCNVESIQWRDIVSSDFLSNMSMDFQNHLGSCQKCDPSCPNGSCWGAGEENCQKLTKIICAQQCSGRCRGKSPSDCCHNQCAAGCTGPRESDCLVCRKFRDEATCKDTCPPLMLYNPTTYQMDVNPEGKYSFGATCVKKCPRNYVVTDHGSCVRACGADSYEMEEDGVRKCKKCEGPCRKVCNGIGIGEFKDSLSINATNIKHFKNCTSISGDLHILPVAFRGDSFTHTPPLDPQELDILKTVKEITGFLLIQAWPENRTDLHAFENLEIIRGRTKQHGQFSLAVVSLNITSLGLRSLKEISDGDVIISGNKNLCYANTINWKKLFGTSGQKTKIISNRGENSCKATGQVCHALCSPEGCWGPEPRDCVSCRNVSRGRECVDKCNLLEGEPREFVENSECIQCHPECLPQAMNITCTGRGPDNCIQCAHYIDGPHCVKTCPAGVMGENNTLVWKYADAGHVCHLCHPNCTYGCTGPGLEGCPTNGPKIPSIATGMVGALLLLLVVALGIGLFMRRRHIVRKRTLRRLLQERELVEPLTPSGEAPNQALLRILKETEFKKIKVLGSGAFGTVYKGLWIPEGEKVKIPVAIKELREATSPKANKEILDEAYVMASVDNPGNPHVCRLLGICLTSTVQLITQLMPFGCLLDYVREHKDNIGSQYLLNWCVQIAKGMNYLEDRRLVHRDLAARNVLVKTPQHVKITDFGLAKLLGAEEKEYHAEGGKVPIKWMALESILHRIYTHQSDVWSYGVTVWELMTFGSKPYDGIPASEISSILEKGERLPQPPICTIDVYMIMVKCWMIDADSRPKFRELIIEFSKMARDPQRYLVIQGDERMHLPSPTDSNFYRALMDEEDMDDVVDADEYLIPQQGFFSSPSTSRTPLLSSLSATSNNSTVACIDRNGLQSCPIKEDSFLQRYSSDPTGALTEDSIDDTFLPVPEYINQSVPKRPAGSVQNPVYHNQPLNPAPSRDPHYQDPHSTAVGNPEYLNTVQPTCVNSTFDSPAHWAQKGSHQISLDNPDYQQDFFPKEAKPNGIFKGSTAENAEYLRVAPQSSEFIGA
The test is described as follows: Inhibitor activity on EGFR-dependent cell growth (CellTiter-Glo, 72 h), Ba/F3 EGFR exon 20 NPG Ins. The conditions noted are these: read-out: BaF3 NPG IC50. The procedure, abridged: as §1

Another test has as its target T5, EGFR WT (Ba/F3 cells) (Homo sapiens, UniProt P00533).
T5 construct: expressed in transfected cells; host or cells: Ba/F3 (murine pro-B cells), retroviral transduction, puromycin selection, maintained with EGF
Briefly: Inhibitor activity on EGFR-dependent cell growth (CellTiter-Glo, 72 h), Ba/F3 EGFR WT. The settings on record: read-out: BaF3 WT IC50. The procedure, abridged:
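This growth assay used Ba/F3 cells that depend on wild-type EGFR and are kept in EGF without IL3. Compounds were made up as 10 mM DMSO stocks and diluted 3-fold over 10 points. 120 nL went onto 600 cells/well. After 72 hours, 40 μL CellTiter-Glo was added and luminescence read on EnVision after 30 min.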

Setting [6] is: EGFR phosphorylation, AlphaLISA, 2 hours, read-out: ASV IC50 (pEGFR).

Data on ten molecules can be found in patent US20240101576A1, “HETEROCYCLIC INHIBITORS OF EGFR AND/OR HER2, FOR USE IN THE TREATMENT OF CANCER” (Scorpion Therapeutics, Inc., priority 2020, published 2024).

Molecules are shown by their SMILES. A value given as a limit tells only on which side of the number the result lay.

T1 sequence (P00533 with tags, fused parts or gaps INS763FQEA): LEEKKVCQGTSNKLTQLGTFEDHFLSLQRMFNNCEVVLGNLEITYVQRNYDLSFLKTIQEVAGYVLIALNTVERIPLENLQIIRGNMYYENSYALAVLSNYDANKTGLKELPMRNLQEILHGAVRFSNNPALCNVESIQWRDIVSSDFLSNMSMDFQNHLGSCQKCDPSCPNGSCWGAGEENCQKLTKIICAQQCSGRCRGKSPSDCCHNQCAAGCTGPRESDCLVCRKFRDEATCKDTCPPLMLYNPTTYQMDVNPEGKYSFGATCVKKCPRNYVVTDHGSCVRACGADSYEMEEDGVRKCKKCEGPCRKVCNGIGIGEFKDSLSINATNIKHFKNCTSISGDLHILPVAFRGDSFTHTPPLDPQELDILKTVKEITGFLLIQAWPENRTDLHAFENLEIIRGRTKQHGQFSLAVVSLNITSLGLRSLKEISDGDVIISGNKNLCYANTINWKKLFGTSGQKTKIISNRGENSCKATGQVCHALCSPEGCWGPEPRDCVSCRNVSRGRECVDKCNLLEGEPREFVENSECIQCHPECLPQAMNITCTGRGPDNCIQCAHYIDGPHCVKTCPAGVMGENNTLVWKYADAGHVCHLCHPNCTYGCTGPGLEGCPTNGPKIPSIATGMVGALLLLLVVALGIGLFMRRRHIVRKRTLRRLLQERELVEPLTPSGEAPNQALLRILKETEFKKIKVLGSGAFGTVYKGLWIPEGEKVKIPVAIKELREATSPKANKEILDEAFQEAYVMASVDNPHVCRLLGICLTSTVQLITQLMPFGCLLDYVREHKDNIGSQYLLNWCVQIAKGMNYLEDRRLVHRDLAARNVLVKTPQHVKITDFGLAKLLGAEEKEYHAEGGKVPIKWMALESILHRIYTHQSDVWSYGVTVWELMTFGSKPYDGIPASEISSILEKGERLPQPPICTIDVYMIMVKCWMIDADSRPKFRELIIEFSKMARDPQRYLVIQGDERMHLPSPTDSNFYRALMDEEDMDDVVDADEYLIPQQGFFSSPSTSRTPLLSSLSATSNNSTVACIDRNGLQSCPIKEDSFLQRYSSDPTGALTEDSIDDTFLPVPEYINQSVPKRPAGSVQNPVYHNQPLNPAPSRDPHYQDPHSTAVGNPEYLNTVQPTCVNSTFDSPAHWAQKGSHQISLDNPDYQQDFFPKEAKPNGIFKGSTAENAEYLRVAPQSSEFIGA
T5 sequence (P00533 25-1210): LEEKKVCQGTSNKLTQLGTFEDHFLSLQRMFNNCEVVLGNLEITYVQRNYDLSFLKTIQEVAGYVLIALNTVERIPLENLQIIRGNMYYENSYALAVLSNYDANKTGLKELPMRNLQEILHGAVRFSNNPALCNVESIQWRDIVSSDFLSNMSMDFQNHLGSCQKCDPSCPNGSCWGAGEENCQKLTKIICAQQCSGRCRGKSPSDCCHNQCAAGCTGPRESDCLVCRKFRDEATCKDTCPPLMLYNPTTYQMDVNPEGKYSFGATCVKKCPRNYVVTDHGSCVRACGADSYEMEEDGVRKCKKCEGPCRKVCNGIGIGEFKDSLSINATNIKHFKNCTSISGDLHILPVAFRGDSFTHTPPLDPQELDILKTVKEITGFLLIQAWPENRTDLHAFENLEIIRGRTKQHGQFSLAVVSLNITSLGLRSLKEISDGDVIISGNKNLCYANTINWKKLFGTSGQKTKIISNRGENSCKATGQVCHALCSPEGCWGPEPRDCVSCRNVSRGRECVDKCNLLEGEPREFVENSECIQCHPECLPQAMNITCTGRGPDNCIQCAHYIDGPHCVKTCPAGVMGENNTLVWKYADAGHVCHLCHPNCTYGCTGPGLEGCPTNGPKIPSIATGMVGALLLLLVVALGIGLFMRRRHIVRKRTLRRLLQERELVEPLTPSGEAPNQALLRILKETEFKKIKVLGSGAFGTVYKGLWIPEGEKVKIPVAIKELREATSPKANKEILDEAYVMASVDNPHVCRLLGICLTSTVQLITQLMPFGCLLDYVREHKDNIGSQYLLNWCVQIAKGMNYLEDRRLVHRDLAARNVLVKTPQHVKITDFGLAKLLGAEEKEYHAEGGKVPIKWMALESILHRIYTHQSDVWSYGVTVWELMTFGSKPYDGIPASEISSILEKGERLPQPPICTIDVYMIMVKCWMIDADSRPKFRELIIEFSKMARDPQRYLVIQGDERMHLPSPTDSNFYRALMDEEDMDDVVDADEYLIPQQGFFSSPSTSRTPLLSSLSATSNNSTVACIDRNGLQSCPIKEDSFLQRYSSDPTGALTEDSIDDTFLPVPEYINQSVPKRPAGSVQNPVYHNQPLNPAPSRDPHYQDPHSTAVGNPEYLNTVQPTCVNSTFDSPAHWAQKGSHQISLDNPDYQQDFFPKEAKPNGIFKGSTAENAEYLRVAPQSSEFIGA

Turning to `COc1c(Cl)cccc1Nc1c(-c2ccnc3[nH]ccc23)[nH]c2c1C(=O)NCC2` [compound 218], the IC50 in test [1] was 100 to 1000 nM; in test [2] it was 100 to 1000 nM; in test [3] (setting [6]), less than 100 nM; in test [4], 100 to 1000 nM; in test [5], more than 1000 nM; on EGFR WT (Ba/F3 cells), more than 1000 nM.

Regarding `COc1c(Cl)cccc1Nc1c(-c2ccnc3c2OCCN3)[nH]c2c1C(=O)NCC2` [compound 292], the IC50 in test [1] was 100 to 1000 nM; in test [2], 100 to 1000 nM; in test [3] (setting [6]), less than 100 nM; in test [4], 100 to 1000 nM; in test [5], 100 to 1000 nM; on EGFR WT (Ba/F3 cells), more than 1000 nM.

For `COc1c(Cl)cccc1Nc1c(-c2ccnc(NC[C@H]3CCCO3)n2)[nH]c2c1C(=O)NCC2` [compound 721, (R)-3-((3-chloro-2-methoxyphenyl)amino)-2-(2-(((tetrahydrofuran-2-yl)methyl)amino)pyrimidin-4-yl)-1,5,6,7-tetrahydro-4H-pyrrolo[3,2-c]pyridin-4-one], the IC50 in test [1] is more than 1000 nM; in test [2], more than 1000 nM; in test [3] (setting [6]), 100 to 1000 nM; in test [4] it was more than 1000 nM; in test [5], more than 1000 nM; on EGFR WT (Ba/F3 cells), more than 1000 nM.

With `Nc1nccc(-c2[nH]c3c(c2Nc2cccc(Cl)c2F)C(=O)NCC3)n1` [Compound 706, 2-(2-aminopyrimidin-4-yl)-3-[(3-chloro-2-fluorophenyl)amino]-1H,5H,6H,7H-pyrrolo[3,2-c]pyridin-4-one], the IC50 is 100 to 1000 nM in test [1], less than 100 nM in test [3], less than 100 nM in test [5] and 100 to 1000 nM at EGFR WT (Ba/F3 cells).

Consider `Cc1c(Cl)cccc1Nc1c(-c2ccnc(N)n2)[nH]c2c1C(=O)NCC2` [compound 725, 2-(2-aminopyrimidin-4-yl)-3-[(3-chloro-2-methylphenyl)amino]-1H,5H,6H,7H-pyrrolo[3,2-c]pyridin-4-one; trifluoroacetic acid], for which the IC50 in test [1] is 100 to 1000 nM; in test [3] (setting [6]), less than 100 nM; in test [5], less than 100 nM; at EGFR WT (Ba/F3 cells), 100 to 1000 nM.

For `COc1c(Nc2c(-c3ccnc(N)n3)[nH]c3c2C(=O)NCC3)cccc1C(F)(F)F` [Compound 698, 2-(2-aminopyrimidin-4-yl)-3-[[2-methoxy-3-(trifluoromethyl)phenyl]amino]-1H,5H,6H,7H-pyrrolo[3,2-c]pyridin-4-one], the 50% inhibitory concentration (IC50) was 100 to 1000 nM in test [1], 100 to 1000 nM in test [3] (setting [6]), 100 to 1000 nM in test [5] and more than 1000 nM at EGFR WT (Ba/F3 cells).

In the case of `CCc1c(Cl)cccc1Nc1c(-c2ccnc(N)n2)[nH]c2c1C(=O)NCC2` [compound 297], the IC50 in test [1] was 100 to 1000 nM; in test [3] (setting [6]), less than 100 nM; in test [5] it was 100 to 1000 nM; on EGFR WT (Ba/F3 cells), more than 1000 nM.

On to `COc1c(Cl)cccc1Nc1c(-c2ccnc(NCC(C)(C)O)n2)[nH]c2c1C(=O)NCC2` [compound 288], for which the IC50 (in test [1]; in test [2]; in test [3] (setting [6]); in test [4]; on EGFR WT (Ba/F3 cells)) was more than 1000 nM throughout.

With `COc1c(Cl)cccc1Nc1c(-c2ccnc(N)c2F)[nH]c2c1C(=O)NCC2` [Compound 686, 2-(2-amino-3-fluoropyridin-4-yl)-3-[(3-chloro-2-methoxyphenyl)amino]-1H,5H,6H,7H-pyrrolo[3,2-c]pyridin-4-one; trifluoroacetic acid], the half-maximal inhibitory concentration (IC50) in test [1] is 100 to 1000 nM; in test [2] it was less than 100 nM; in test [3] (setting [6]), less than 100 nM; in test [4], less than 100 nM; on EGFR WT (Ba/F3 cells), 100 to 1000 nM.

In the case of `Cc1cccc(F)c1Nc1c(-c2ccnc(N)n2)[nH]c2c1C(=O)NCC2` [compound 198], the IC50 (in test [1]; in test [2]; in test [3] (setting [6]); in test [4]; at EGFR WT (Ba/F3 cells)) was more than 1000 nM each time.
